Test results as given in PubChem BioAssay AID248 (DTP/NCI, 2004).
Values joined by “and” are separate entries in the source; they are usually repeats but may differ in a detail not shown here. Identical values can stand only once. Inconclusive results and toxic doses are left out. Rule as the data show it: active = T/C of 150% or more; inactive = T/C below 125%.

Tested on: L1210 leukemia ip in BDF1 mice, survival T/C
Assay: NCI In Vivo Anticancer Drug Screen. Data for tumor model L1210 Leukemia (intraperitoneal) in B6D2F1 (BDF1) mice
Details: higher = longer survival
Method in brief: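 Survival endpoint. Drug-treated group vs vehicle group, expressed as T divided by C. Tumor passaged by transplantation.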

[1] = endpoint: mean survival time, dose: 100.0 mg/kg/injection, schedule: Q01DX009 (ip), vehicle: saline with Tween-80
[2] = endpoint: mean survival time, dose: 100.0 mg/kg/injection, schedule: Q01DX001 (ip), vehicle: saline
[3] = endpoint: mean survival time, dose: 200.0 mg/kg/injection, schedule: Q01DX001 (ip), vehicle: saline
[4] = endpoint: mean survival time, dose: 400.0 mg/kg/injection, schedule: Q01DX001 (ip), vehicle: saline
[5] = endpoint: mean survival time, dose: 100.0 mg/kg/injection, schedule: Q04DX003 (ip), vehicle: saline with Tween-80
[6] = endpoint: mean survival time, dose: 100.0 mg/kg/injection, schedule: Q04DX003 (ip), vehicle: saline

Measured: T/C

COc1cc([C@@H]2c3cc4c(c(O)c3C[C@H]3COC(=O)[C@@H]32)OCO4)cc(OC)c1O
inactive: endpoint: mean survival time, dose: 0.06 mg/kg/injection, schedule: Q01DX Z (ip), vehicle: saline 100 % of control | endpoint: mean survival time, dose: 0.12 mg/kg/injection, schedule: Q01DX Z (ip), vehicle: saline 100 % of control | endpoint: mean survival time, dose: 0.2 mg/kg/injection, schedule: Q01DX001 (ip), vehicle: carboxymethylcellulose (CMC) 119 % of control | endpoint: mean survival time, dose: 0.25 mg/kg/injection, schedule: Q01DX Z (ip), vehicle: saline 100 % of control | endpoint: mean survival time, dose: 0.5 mg/kg/injection, schedule: Q01DX001 (ip), vehicle: carboxymethylcellulose (CMC) 107 % of control | endpoint: mean survival time, dose: 0.5 mg/kg/injection, schedule: Q01DX Z (ip), vehicle: saline 100 % of control | endpoint: mean survival time, dose: 1.0 mg/kg/injection, schedule: Q01DX001 (ip), vehicle: carboxymethylcellulose (CMC) 107 % of control | endpoint: mean survival time, dose: 2.0 mg/kg/injection, schedule: Q01DX001 (ip), vehicle: carboxymethylcellulose (CMC) 111 % of control | endpoint: mean survival time, dose: 3.6 mg/kg/injection, schedule: Q01DX001 (ip), vehicle: carboxymethylcellulose (CMC) 103 % of control | endpoint: mean survival time, dose: 4.0 mg/kg/injection, schedule: Q01DX001 (ip), vehicle: carboxymethylcellulose (CMC) 119 % of control | endpoint: mean survival time, dose: 5.3 mg/kg/injection, schedule: Q01DX001 (ip), vehicle: carboxymethylcellulose (CMC) 108 % of control | endpoint: mean survival time, dose: 8.0 mg/kg/injection, schedule: Q01DX001 (ip), vehicle: carboxymethylcellulose (CMC) 113 % of control | endpoint: median survival time, dose: 0.06 mg/kg/injection, schedule: Q01DX009 (ip), vehicle: Klucel (hydroxypropylcellulose) (HPC) 100 % of control | endpoint: median survival time, dose: 0.12 mg/kg/injection, schedule: Q01DX009 (ip), vehicle: Klucel (hydroxypropylcellulose) (HPC) 100 % of control | endpoint: median survival time, dose: 0.25 mg/kg/injection, schedule: Q01DX009 (ip), vehicle: Klucel (hydroxypropylcellulose) (HPC) 100 % of control | endpoint: median survival time, dose: 0.5 mg/kg/injection, schedule: Q01DX009 (ip), vehicle: Klucel (hydroxypropylcellulose) (HPC) 111 % of control

O=C(O)c1cccc2c1-c1ccccc1C(Br)C2Br (stereo unspecified)
inactive: endpoint: mean survival time, dose: 200.0 mg/kg/injection, schedule: Q04DX002 (ip), vehicle: saline with Tween-80 101 % of control

NC(=O)N/N=C/c1ccccc1N
inactive: [1] 94 % of control | endpoint: mean survival time, dose: 200.0 mg/kg/injection, schedule: Q01DX009 (ip), vehicle: saline with Tween-80 94 % of control | endpoint: mean survival time, dose: 400.0 mg/kg/injection, schedule: Q01DX009 (ip), vehicle: saline with Tween-80 96 % of control

Nc1nc(=O)n(C2CCCO2)cc1Br (stereo unspecified)
inactive: [2] 100 % of control | [3] 103 % of control | [4] 87 % of control

O=[N+]([O-])c1ccc(N2CCN=N2)cc1
inactive: endpoint: mean survival time, dose: 8.0 mg/kg/injection, schedule: Q01DX015 (ip), vehicle: saline 107 % of control | endpoint: mean survival time, dose: 16.0 mg/kg/injection, schedule: Q01DX015 (ip), vehicle: saline 110 % of control | endpoint: mean survival time, dose: 32.0 mg/kg/injection, schedule: Q01DX015 (ip), vehicle: saline 113 % of control | endpoint: mean survival time, dose: 64.0 mg/kg/injection, schedule: Q01DX015 (ip), vehicle: saline 116 % of control | [2] 103 % of control | endpoint: mean survival time, dose: 100.0 mg/kg/injection, schedule: Q04DX003 (ip), vehicle: saline sonified 104 % of control | [4] 111 % of control

CCCCN(CCCC)N=Nc1c[nH]c(=O)[nH]c1=O
inactive: endpoint: mean survival time, dose: 8.0 mg/kg/injection, schedule: Q01DX Z (ip), vehicle: carboxymethylcellulose (CMC) 114 % of control | endpoint: mean survival time, dose: 16.0 mg/kg/injection, schedule: Q01DX Z (ip), vehicle: carboxymethylcellulose (CMC) 109 % of control

COC(C)C/C=N/Nc1nnc(N/N=C/CC(C)OC)c2ccccc12 (stereo unspecified)
inactive: endpoint: mean survival time, dose: 5.0 mg/kg/injection, schedule: Q01DX001 (ip), vehicle: carboxymethylcellulose (CMC) 96 % of control | endpoint: mean survival time, dose: 10.0 mg/kg/injection, schedule: Q01DX001 (ip), vehicle: carboxymethylcellulose (CMC) 93 % of control

CCCCn1nnc2c(NCCc3cnc[nH]3)nc(N)nc21
inactive: endpoint: mean survival time, dose: 50.0 mg/kg/injection, schedule: Q01DX009 (ip), vehicle: saline with Tween-80 93 % of control | [1] 95 % of control | [5] 89 % of control | endpoint: mean survival time, dose: 200.0 mg/kg/injection, schedule: Q04DX003 (ip), vehicle: saline with Tween-80 89 % of control

CN(N)C=O
inactive: endpoint: mean survival time, dose: 75.0 mg/kg/injection, schedule: Q01DX001 (ip), vehicle: saline 100 % of control | [6] 108 % of control | endpoint: mean survival time, dose: 150.0 mg/kg/injection, schedule: Q01DX001 (ip), vehicle: saline 96 % of control | endpoint: mean survival time, dose: 300.0 mg/kg/injection, schedule: Q01DX001 (ip), vehicle: saline 98 % of control

O=C(CSc1ccc(Cl)cc1)Nc1ccccc1
inactive: endpoint: mean survival time, dose: 100.0 mg/kg/injection, schedule: Q04DX002 (ip), vehicle: gum acacia 92 % of control | endpoint: mean survival time, dose: 200.0 mg/kg/injection, schedule: Q04DX002 (ip), vehicle: gum acacia 87 % of control | endpoint: mean survival time, dose: 400.0 mg/kg/injection, schedule: Q04DX002 (ip), vehicle: gum acacia 89 % of control

O=C(O)c1ccccc1C(=O)Nc1cccc2ccccc12
inactive: endpoint: mean survival time, dose: 100.0 mg/kg/injection, schedule: Q04DX002 (ip), vehicle: Klucel (hydroxypropylcellulose) (HPC) 88 % of control | endpoint: mean survival time, dose: 200.0 mg/kg/injection, schedule: Q04DX002 (ip), vehicle: Klucel (hydroxypropylcellulose) (HPC) 104 % of control

C=C(Cl)CSC(=S)N(CC)CC
inactive: endpoint: mean survival time, dose: 50.0 mg/kg/injection, schedule: Q01DX009 (ip), vehicle: saline sonified 94 % of control | endpoint: mean survival time, dose: 100.0 mg/kg/injection, schedule: Q01DX009 (ip), vehicle: saline sonified 94 % of control | [6] 105 % of control | endpoint: mean survival time, dose: 200.0 mg/kg/injection, schedule: Q01DX009 (ip), vehicle: saline sonified 105 % of control | endpoint: mean survival time, dose: 200.0 mg/kg/injection, schedule: Q04DX003 (ip), vehicle: saline 102 % of control

COC(=O)C1C2CC3c4[nH]c5cc(OC)ccc5c4CCN3CC2CC(OC(=O)c2cc(OC)c(OC)c(OC)c2)C1OC (stereo unspecified)
inactive: endpoint: mean survival time, dose: 6.25 mg/kg/injection, schedule: Q01DX009 (ip), vehicle: Klucel (hydroxypropylcellulose) (HPC) 94 % of control | endpoint: mean survival time, dose: 12.5 mg/kg/injection, schedule: Q01DX009 (ip), vehicle: Klucel (hydroxypropylcellulose) (HPC) 96 % of control | endpoint: mean survival time, dose: 25.0 mg/kg/injection, schedule: Q01DX009 (ip), vehicle: Klucel (hydroxypropylcellulose) (HPC) 105 % of control | endpoint: mean survival time, dose: 25.0 mg/kg/injection, schedule: Q04DX003 (ip), vehicle: saline 106 % of control | endpoint: mean survival time, dose: 50.0 mg/kg/injection, schedule: Q01DX009 (ip), vehicle: Klucel (hydroxypropylcellulose) (HPC) 113 % of control | endpoint: mean survival time, dose: 50.0 mg/kg/injection, schedule: Q04DX003 (ip), vehicle: saline 119 % of control | [6] 111 % of control

CC1CCCC(CN=Cc2ccccc2O)[N-]1.CC1CCCC(CN=Cc2ccccc2O)[N-]1.[Ni+2] (stereo unspecified)
inactive: [5] 98 % of control

CC1C(=O)C2C1CS2(=O)=O (stereo unspecified)
inactive: endpoint: mean survival time, dose: 100.0 mg/kg/injection, schedule: Q04DX002 (ip), vehicle: DMSO 97 % of control | endpoint: mean survival time, dose: 200.0 mg/kg/injection, schedule: Q04DX002 (ip), vehicle: DMSO 97 % of control | endpoint: mean survival time, dose: 400.0 mg/kg/injection, schedule: Q04DX002 (ip), vehicle: DMSO 91 % of control

CC(C)(CCCOc1ccccc1)NC(=O)c1ccccc1
inactive: endpoint: mean survival time, dose: 50.0 mg/kg/injection, schedule: Q01DX001 (ip), vehicle: saline 100 % of control | [2] 100 % of control | [3] 103 % of control | [4] 102 % of control

COC1OC(COC(=O)c2ccc([N+](=O)[O-])cc2)C2OC12 (stereo unspecified)
inactive: endpoint: mean survival time, dose: 100.0 mg/kg/injection, schedule: Q01DX001 (ip), vehicle: carboxymethylcellulose (CMC) 100 % of control | [2] 101 % of control | endpoint: mean survival time, dose: 200.0 mg/kg/injection, schedule: Q01DX001 (ip), vehicle: carboxymethylcellulose (CMC) 95 % of control | [3] 101 % of control and 109 % of control | endpoint: mean survival time, dose: 400.0 mg/kg/injection, schedule: Q01DX001 (ip), vehicle: carboxymethylcellulose (CMC) 89 % of control | [4] 101 % of control

CCOC(=O)C1(C(=O)OCC)COC(=O)C2(CC)OC21 (stereo unspecified)
inactive: [2] 107 % of control | [3] 98 % of control | [4] 109 % of control
